Read-outs that look alike come from different tables or passages of the source.
Experiments:
[1] = system: cyclic AMP/phosphodiesterase; test: Inhibitory action of cyclic AMP/phosphodiesterase (crude enzyme fraction from sonicated rabbit platelets); format: biochemical; settings: 40 min
Protocol: The pharmacological activity of the present compounds [1] is illustrated below. (1) Inhibitory action of cyclic AMP/phosphodiesterase:
A mixture of 2 mM MgCl2 /40 mM Tris-buffer (pH 7.5) 700 μl, enzyme solution (a crude enzyme fraction obtained from sonicated rabbit platelets) 100 μl, and a test sample solution (compound [1] dissolved in 50% aqueous methanol) 100 μl is incubated at 30° C. for 5 mins. 3', 5'-cyclic AMP 100 μl (50 μg) is added thereto and the mixture is further incubated for 40 mins. The reaction is stopped by heating 100° C. for 5 mins. The amount of 5'-AMP in the supernatant obtained by centrifugation at 3000 rpm for 5 mins. is measured using HPLC.
As shown in that table, the compound of the present invention has cyclic AMP/phosphodiesterase inhibitory activity at 1-10 μg/ml.

[2] = system: rabbit platelet-rich plasma; test: Platelet aggregation inhibition (rabbit platelet-rich plasma, aggregometer); format: cell-based; settings: Oryctolagus cuniculus, compound final concentration 10 μM, read-out: Inhibitory ratio
Protocol: (2) Platelet aggregation inhibition:
A rabbit platelet-rich plasma (5×10^5 /mm^3), to which was added 1/10 volume of a 3.8% sodium citrate solution, 216 μl, is incubated in an aggregometer at 37° C., 1000 rpm, for 3 mins. A test sample solution 12 μl (final concentration 10 μM) is added thereto and the mixture is further incubated for 3 mins., and collagen (aggregation agent) 2.5 μg/ml, ADP 2.5 μM, platelet activating factor (PAF) 0.05 μg/ml or 0.25 mM arachidonic acid (A.A.) 12 μl is added thereto as an aggregating agent, and the platelet aggregation activity is measured.

[3] = aggregating agent PAF 0.05 μg/ml
[4] = aggregating agent arachidonic acid (A.A.) 0.25 mM
[5] = aggregating agent collagen 2.5 μg/ml

| Compound | Inhibitory ratio ([1]; 1 μg/ml) [%] | Inhibitory ratio ([1]; 10 μg/ml) [%] | Inhibitory ratio ([1]; 100 μg/ml) [%] | inhibition at 10 µM ([2]; aggregating agent ADP 2.5 μM) [%] | inhibition at 10 µM [2, 3] [%] | inhibition at 10 µM [2, 4] [%] | inhibition at 10 µM [2, 5] [%] |
| --- | --- | --- | --- | --- | --- | --- | --- |
| CCOC(=O)CCCOc1ccc2[nH]c(=O)c(-c3ccccc3)nc2c1 [Compound 954] | 42.4 | 54.2 | – | – | – | – | – |
| CCCCCCCCCc1nc2cc(OCCCC(=O)O)ccc2[nH]c1=O [Compound 960] | 34.8 | 61.7 | 87.4 | – | – | – | – |
| CCOC(=O)CCCOc1ccc2c(c1)NCC(=O)N2 [Compound 925, 6-(3-ethoxycarbonylpropoxy)-2-oxo-1,2,3,4-tetrahydroquinoxaline] | 5.3 | 26.4 | 71.3 | 56.5 | 29.5 | 46.5 | 53.8 |
| Cc1nc2cc(OCCCC(=O)O)ccc2[nH]c1=O [Compound 955, 3-methyl-6-(3-carboxypropoxy)-2-oxo-1,2-dihydroquinoxaline] | 44.2 | 82.3 | 93.0 | – | – | – | – |
| CCN(C(=O)CCCCOc1ccc2[nH]c(=O)cnc2c1)C1CCCCC1 [Compound 921] | 49.8 | 84.5 | 93.0 | 62.6 | 35.3 | 44.7 | 81 |
| O=C(CCCCOc1ccc2[nH]c(=O)cnc2c1)N(Cc1ccccc1)C1CCCCC1 [Compound 922] | 61.7 | 88.1 | 91.1 | – | – | – | – |
| CCc1nc2cc(OCCCC(=O)O)ccc2[nH]c1=O [Compound 956] | 83.9 | 92.9 | 95.0 | – | – | – | – |
| CCCCc1nc2cc(OCCCC(=O)O)ccc2[nH]c1=O [Compound 958] | 69.9 | 91.4 | 93.7 | – | – | – | – |
| O=C1CNc2cc(OCCCCc3nnnn3C3CCCCC3)ccc2N1 [Compound 931, 6-[4-(1-cyclohexyltetrazole-5-yl)-butoxy]-2-oxo-1,2,3,4-tetrahydroquinoxaline] | 25.3 | 74.3 | 86.4 | – | 44.3 | 34 | 65.2 |
| CCc1nc2cc(OCCCC(=O)N(C)C3CCCCC3)ccc2[nH]c1=O [Compound 971] | 84.4 | 93.0 | – | – | – | – | – |
| CCN(C(=O)CCCOc1ccc2[nH]c(=O)cnc2c1)C1CCCCC1 [Compound 915] | 37.2 | 77.7 | 85.1 | 41 | 36 | 30.4 | 63.2 |
| O=C(CCCOc1ccc2[nH]c(=O)cnc2c1)N(CCO)C1CCCCC1 [Compound 917] | 16.6 | 59.3 | 87.7 | 36.9 | 36.7 | 32.6 | 57.4 |
| CN(C(=O)CCCOc1ccc2[nH]c(=O)cnc2c1)C1CCCCC1 [Compound 896] | 25.5 | 71.5 | 91.0 | 37.2 | 37.1 | 31.1 | 59.2 |
| CCN(CC)C(=O)CCCOc1ccc2[nH]c(=O)c(-c3ccccc3)nc2c1 [Compound 988] | 46.4 | 76.9 | – | – | – | – | – |
| CCOC(=O)CCCOc1ccc2[nH]c(=O)c(C)nc2c1 [Compound 945] | 44.3 | 83.5 | 88.9 | – | – | – | 54.2 |
| CCCc1nc2cc(OCCCC(=O)N(CCO)C3CCCCC3)ccc2[nH]c1=O [Compound 975] | 59.5 | 88.9 | 93.5 | – | – | – | – |
| O=c1cnc2cc(OCCCCc3nnnn3C3CCCCC3)ccc2[nH]1 [Compound 913, 6-[4-(1-cyclohexyl-tetrazole-5-yl)-butoxy]-2-oxo-1,2-dihydroquinoxaline] | 19.2 | 80.3 | – | – | – | – | – |
| CCOC(=O)CCCOc1ccc2[nH]c(=O)cnc2c1 [Compound 914, 6-(3-ethoxycarbonylpropoxy)-2-oxo-1,2-dihydroquinoxaline] | 18.1 | 34.3 | 54.4 | – | – | – | – |
| O=C(O)CCCOc1ccc2[nH]c(=O)c(-c3ccccc3)nc2c1 [Compound 964] | 43.8 | 78.8 | 90.5 | – | – | – | – |
| O=C(O)CCCOc1ccc2[nH]c(=O)cnc2c1 [Compound 938, 6-(3-carboxypropoxy)-2-oxo-1,2-dihydroquinoxaline] | 17.9 | 63.1 | 88.2 | – | – | – | – |

Reference: patent US4870175A, “6-substituted alkoxy-2-oxo-1,2-dihydroquinoxaline derivatives” (Toyo Jozo Kabushiki Kaisha, priority 1987, dated 1989)
